Reference: US8173131B2, “Compositions and methods for modulating RSV infection and immunity” (PerkinElmer Health Sciences, Inc., priority 2000, dated 2012)
Where two headings read alike, the source gives them in different places.

Tests used:
[1] = tested on: RSV; test: RSV plaque reduction assay on Vero cells (Example 1); type: cell-based, RSV/A2
Experimental: Dilutions of Fkn (R&D systems), SDF-1 α (R&D systems), G glycoprotein, heparin (Sigma), G glycoprotein peptides and anti-CX3CR1 antibody were made in serum-free Dulbecco's Modified Eagle's Media (DMEM; GIBCO) containing 1% BSA (Sigma) and preincubated with the Vero cells for 1 h at 37° C. 50 μg of anti-CX3CR1 antibody or heat-inactivated (56° C., 30 min) normal rabbit sera (control) were used in all experiments. […] Dilutions of RSV were made in serum-free DMEM (GIBCO) and added to pretreated Vero cells for 2 h at 37° C. Following virus infection, DMEM (GIBCO) containing 10% FBS (Hyclone, Logan, Utah) was added to the wells. Plaques were enumerated using immunostaining for F and G glycoproteins using biotinylated monoclonal antibodies 131-2A (anti-F glycoprotein) and 130-2G (anti-G glycoprotein) as described^45.
RSV plaque reduction following treatment with G glycoprotein, Fkn, G glycoprotein peptides, anti-CX3CR1 antibody, SDF-1-α and/or heparin as described in Methods. Percent inhibition was determined from the mean plaque forming units (pfu) of treated Vero cells over saline-treated Vero cells using a dilution of RSV that would produce 40-80 pfu. p-values were determined using unpaired two-tailed analysis where p<0.05 is significant. The concentration of G glycoprotein was estimated using a molecular weight of 90 kD.

[2] = tested on: G glycoprotein binding to 293-CX3CR1 cells; set-up: species or system human; details: for percent staining of G glycoprotein on CX3CR1-293 cells in the presence of peptide: 10 nM G glycoprotein, 84% without peptide, FIG. 1
Experimental: All binding studies were done on ice and either G glycoprotein or human Fkn (R&D Diagnostics, Minneapolis, Minn.) were diluted between 1 nM-100 nM in PBS (GIBCO) containing 1% bovine serum albumin (Sigma) and incubated with the 293-CX3CR1 cells or 293 control cells for 30 min at 4° C. […] Without washing, 100 pM of either Fkn or G glycoprotein was added and incubated for 30 min at 4° C. The cells were washed, blocked with FcγRIII blocking antibody (HB197) for 30 min on ice, washed and stained as appropriate with either an anti-G glycoprotein monoclonal antibody cocktail (132-5B, 132-5G, 130-2G, 232-IF) or a biotinylated anti-G glycoprotein monoclonal antibody cocktail (130-2G, 131-2G) or anti-Fkn monoclonal antibody (51637.11; R&D Diagnostics). Concentrations of 1 μg of anti-G glycoprotein monoclonal antibody (131-2G)^34, rabbit anti-CX3CR1 sera^33, and anti-CX3CR1 monoclonal antibody containing 10 μg/ml heparin were used in all experiments. […] Staining was detected with absorbed FITC-goat anti-mouse (H & L chain) monoclonal antibody (PharMingen, San Diego, Calif.) or streptavidin-PE (PharMingen) using flow cytometry (FACScan, Becton-Dickinson, Mountain View, Calif.). A 76 amino acid ^125I-Fkn polypeptide comprising the […] (NEN, Boston, Mass.) was used in radioligand studies^33. As a control, the void volume following purified G glycoprotein passaged over an anti-G glycoprotein antibody (130-2G) affinity column was examined by flow cytometry for binding to either 293 or 293-CX3CR1 cells.
(§1) For peptide inhibition studies, a series of G glycoprotein peptides were identified in the amino acid sequence of the A2 strain of RSV (GENBANK, attachment protein locus 1912305, Table 4). The peptides were synthesized using a simultaneous, multiple solid-phase peptide synthesis method on a peptide synthesizer (Perkin-Elmer Applied Biosystems, Berkeley, Calif.), and tested for homogeneity by reverse-phase liquid chromatography and capillary electrophoresis (www.biotech.cdc.gov/protein/methods). Inhibition assays were performed as described for the binding studies above.
(§2) To determine if G glycoprotein bound 293-CX3CR1 cells via CX3CR1, the ability of four reagents (anti-CX3CR1 rabbit antiserum, anti-CX3CR1 monoclonal antibody (2A9-1), Fkn and a 76 amino acid 125-I-Fkn polypeptide containing the CX3C domain) that bind to CX3CR1 to block G glycoprotein binding to 293-CX3CR1 cells was examined. In addition, to determine if binding of G glycoprotein to 293-CX3CR1 cells was dependent upon the CX3C motif, G glycoprotein peptides with a single residue insertion (Δ+1) or deletion (Δ−1) in the CX3C motif and also peptides that lacked or included the CX3C motif (Table 4) were generated. This panel of peptides was analyzed for their ability to block G glycoprotein or Fkn binding to 293-CX3CR1 cells.
(§3) Inhibition of Fkn and G glycoprotein binding to 293-CX3CR1 cells by treatment with monoclonal antibodies to G glycoprotein or CX3CR1, or treatment with G glycoprotein, Fkn, or G glycoprotein peptides in the presence or absence of heparin as described in Methods. […] The concentration of G glycoprotein was estimated using a molecular weight of 90 kD.

[3] = molecular target: T1, Fkn binding to 293-CX3CR1 cells (Homo sapiens, UniProt P49238); details: no heparin
T1 construct: host or cells: HEK 293 cells stably transfected with CX3CR1
Experimental: All binding studies were done on ice and either G glycoprotein or human Fkn (R&D Diagnostics, Minneapolis, Minn.) were diluted between 1 nM-100 nM in PBS (GIBCO) containing 1% bovine serum albumin (Sigma) and incubated with the 293-CX3CR1 cells or 293 control cells for 30 min at 4° C. […] For inhibition studies, 100 pM-1 μM human Fkn or G glycoprotein was preincubated with the cells for 30 min at 4° C. Without washing, 100 pM of either Fkn or G glycoprotein was added and incubated for 30 min at 4° C. The cells were washed, blocked with FcγRIII blocking antibody (HB197) for 30 min on ice, washed and stained as appropriate with either an anti-G glycoprotein monoclonal antibody cocktail (132-5B, 132-5G, 130-2G, 232-IF) or a biotinylated anti-G glycoprotein monoclonal antibody cocktail (130-2G, 131-2G) or anti-Fkn monoclonal antibody (51637.11; R&D Diagnostics). Concentrations of 1 μg of anti-G glycoprotein monoclonal antibody (131-2G)^34, rabbit anti-CX3CR1 sera^33, and anti-CX3CR1 monoclonal antibody containing 10 μg/ml heparin were used in all experiments. […] Staining was detected with absorbed FITC-goat anti-mouse (H & L chain) monoclonal antibody (PharMingen, San Diego, Calif.) or streptavidin-PE (PharMingen) using flow cytometry (FACScan, Becton-Dickinson, Mountain View, Calif.). A 76 amino acid ^125I-Fkn polypeptide comprising the […] (NEN, Boston, Mass.) was used in radioligand studies^33. As a control, the void volume following purified G glycoprotein passaged over an anti-G glycoprotein antibody (130-2G) affinity column was examined by flow cytometry for binding to either 293 or 293-CX3CR1 cells.
as §1, §2, §3

T1 sequence (P49238 whole entry): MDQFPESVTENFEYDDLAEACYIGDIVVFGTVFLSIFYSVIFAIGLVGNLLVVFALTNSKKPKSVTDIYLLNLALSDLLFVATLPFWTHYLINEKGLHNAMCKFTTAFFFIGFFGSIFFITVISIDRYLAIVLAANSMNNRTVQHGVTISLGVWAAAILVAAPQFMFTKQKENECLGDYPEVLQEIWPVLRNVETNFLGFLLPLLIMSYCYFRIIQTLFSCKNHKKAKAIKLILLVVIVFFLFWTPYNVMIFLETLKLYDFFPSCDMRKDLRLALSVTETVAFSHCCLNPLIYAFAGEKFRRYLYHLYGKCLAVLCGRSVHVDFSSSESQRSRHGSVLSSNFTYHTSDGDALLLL

Molecule: Fkn: CX3C chemokine fractalkine (R&D), ligand of CX3CR1 [reference compound]
- plaque inhibition (%) ([1]; 100 pM): 0%
- plaque inhibition (%) ([1]; 1 nM): 31%
- plaque inhibition (%) ([1]; 10 nM): 80%
- plaque inhibition (%) ([1]; heparin 5 μg/ml + Fkn 10 nM): 97%
- Range of Inhibition (%) of G glycoprotein binding ([2]; heparin 5 μg/ml + Fractalkine 10 nM): 85-98%
- Range of Inhibition (%) of G glycoprotein binding ([2]; inhibitor 100 pM, no heparin): 2-5%
- Range of Inhibition (%) of G glycoprotein binding ([2]; inhibitor 10 nM, no heparin): 8-15%
- Range of Inhibition (%) of G glycoprotein binding ([2]; inhibitor 1 μM, no heparin): 20-34%

Molecule: NKKPGKKTTTKP [RT34]
- plaque inhibition (%) ([1]; 1 μM): 6%
- Range of Inhibition (%) of G glycoprotein binding ([2]; inhibitor 1 μM, no heparin): 4-18%
- Range of Inhibition (%) of Fkn binding ([3]; inhibitor 1 μM): 6-14%

Molecule: TCWACKRIPNK (TCWAIACKRIPNK) [Δ − 1]
- plaque inhibition (%) ([1]; 1 μM): 0%
- percent staining of G glycoprotein on CX3CR1-293 cells in the presence of peptide [2]: 73%
- Range of Inhibition (%) of G glycoprotein binding ([2]; inhibitor 1 μM, no heparin): 8-12%
- Range of Inhibition (%) of Fkn binding ([3]; inhibitor 1 μM): 0-4%

Molecule: TCWAIACKRIPNK [Δ + 1]
- plaque inhibition (%) ([1]; 1 μM): 30%
- percent staining of G glycoprotein on CX3CR1-293 cells in the presence of peptide [2]: 65%
- Range of Inhibition (%) of G glycoprotein binding ([2]; inhibitor 1 μM, no heparin): 16-22%
- Range of Inhibition (%) of Fkn binding ([3]; inhibitor 1 μM): 0-8%

Molecule: TCWAICKRIPNK [RT33]
- plaque inhibition (%) ([1]; 1 μM): 71%
- plaque reduction by peptide alone ([1]; concentration not stated): 16%
- plaque inhibition (%) ([1]; heparin 5 μg/ml + peptide 1 μM): 92%
- Range of Inhibition (%) of G glycoprotein binding ([2]; heparin 5 μg/ml + peptide 1 μM): 85-94%
- Range of Inhibition (%) of G glycoprotein binding ([2]; inhibitor 1 μM, no heparin): 35-42%
- Range of Inhibition (%) of Fkn binding ([3]; inhibitor 1 μM): 18-27%

Molecule: VPCSICSNNPTC [RT32]
- plaque inhibition (%) ([1]; 1 μM): 2%
- Range of Inhibition (%) of G glycoprotein binding ([2]; inhibitor 1 μM, no heparin): 8-14%
- Range of Inhibition (%) of Fkn binding ([3]; inhibitor 1 μM): 6-12%

B1: G glycoprotein: purified G glycoprotein isolated from RSV/A2-infected Vero cells (protein)
chain: MSKNKDQRTAKTLERTWDTLNHLLFISSCLYKLNLKSVAQITLSILAMIISTSLIIAAIIFIASANHKVTPTTAIIQDATSQIKNTTPTYLTQNPQLGISPSNPSEITSQITTILASTTPGVKSTLQSTTVKTKNTTTTQTQPSKPTTKQRQNKPPSKPNNDFHFEVFNFVPCSICSNNPTCWAICKRIPNKKPGKKTTTKPTKKPTLKTTKKDPKPQTTKSKEVPTTKPTEEPTINTTKTNIITTLLTSNTTGNPELTSQMETFHSTSSEGNPSPSQVSTTSEYPSQPSSPPNTPRQ
- plaque inhibition (%) ([1]; 1 nM): 0%
- plaque inhibition (%) ([1]; 10 nM): 49%
- plaque inhibition (%) ([1]; 100 nM): 61%
- plaque inhibition (%) ([1]; heparin 5 μg/ml + G glycoprotein 100 nM): 98%
- Range of Inhibition (%) of Fkn binding ([3]; inhibitor 100 pM): 5-8%
- Range of Inhibition (%) of Fkn binding ([3]; inhibitor 10 nM): 32-38%
- Range of Inhibition (%) of Fkn binding ([3]; inhibitor 1 μM): 50-58%
